# From ChEMBL document CHEMBL1201862, “PubChem BioAssay data set” (2004)
# Active and inactive are the calls of the source.
# Legend:
# [1] = biological target: Glyceraldehyde-3-phosphate dehydrogenase (Homo sapiens, UniProt P04406)
# Bcl-2-related protein A1 [2] = biological target: T1, Bcl-2-related protein A1 (Mus musculus, UniProt Q07440); assay: Bfl-1 inhibitors blocking BH3 peptide binding, confirmation, biochemical, TR-FRET, mouse Bfl-1 (AID 621);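 note: TR-FRET binding of GST-Bfl-1 to FITC-labelled Bid peptide via terbium antibody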
# T1 sequence (Q07440 whole entry): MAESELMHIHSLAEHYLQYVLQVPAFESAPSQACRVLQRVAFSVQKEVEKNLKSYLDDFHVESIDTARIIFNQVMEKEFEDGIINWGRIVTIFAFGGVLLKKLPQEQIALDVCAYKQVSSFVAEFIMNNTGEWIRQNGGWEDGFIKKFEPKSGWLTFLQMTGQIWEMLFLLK
# Bcl-2-related protein A1 [3] = biological target: T1, Bcl-2-related protein A1; assay: Bfl-1 binding inhibitors, SAR follow-up, biochemical, fluorescence polarization (AID 1070)
# [4] = biological target: T2, Tyrosine-protein phosphatase non-receptor type 7 (Homo sapiens, UniProt P35236); assay: inhibitors of human HePTP phosphatase, […], biochemical, absorbance, leukemia target (AID 521); format: functional
# T2 sequence (P35236 whole entry): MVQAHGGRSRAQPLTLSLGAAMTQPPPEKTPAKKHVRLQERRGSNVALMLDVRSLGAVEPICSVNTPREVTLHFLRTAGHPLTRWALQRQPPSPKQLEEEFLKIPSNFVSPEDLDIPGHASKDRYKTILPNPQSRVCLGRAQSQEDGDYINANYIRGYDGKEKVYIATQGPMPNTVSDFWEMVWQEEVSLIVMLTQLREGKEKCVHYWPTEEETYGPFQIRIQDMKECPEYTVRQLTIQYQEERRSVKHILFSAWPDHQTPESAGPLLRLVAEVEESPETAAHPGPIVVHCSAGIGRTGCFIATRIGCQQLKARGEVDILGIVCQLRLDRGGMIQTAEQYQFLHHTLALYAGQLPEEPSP
# [5] = biological target: Sphingosine 1-phosphate receptor 2 (Homo sapiens, UniProt O95136); assay: Dose Response Cell Based Assay for Agonists of the S1P2 Receptor. [Related pubchem assays: 729, 736, 843 ]; format: functional
# Sequence of Sphingosine 1-phosphate receptor 2 (O95136 whole entry): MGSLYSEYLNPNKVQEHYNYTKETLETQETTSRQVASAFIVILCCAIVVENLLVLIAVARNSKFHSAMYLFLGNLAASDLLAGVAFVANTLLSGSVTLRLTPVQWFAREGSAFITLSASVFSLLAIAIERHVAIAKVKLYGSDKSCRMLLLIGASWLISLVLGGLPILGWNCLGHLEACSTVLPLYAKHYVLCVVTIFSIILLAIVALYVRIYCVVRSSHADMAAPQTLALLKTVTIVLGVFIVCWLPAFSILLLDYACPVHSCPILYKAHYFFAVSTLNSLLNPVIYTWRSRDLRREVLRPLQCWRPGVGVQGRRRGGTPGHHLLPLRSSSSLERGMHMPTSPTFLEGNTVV
# [6] = Jurkat T cell cytotoxicity, dose response, cytotoxicity control for P. falciparum gametocyte viability project, luminescence (AID 1117277); format: functional, cell-based;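 note: potency reflects loss of cellular ATP meaning fewer viable cells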
# [7] = P. falciparum late gametocyte killing, dose response, luminescence (AID 1117278); format: functional, cell-based;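 note: gametocytes exposed to compound for 24 hours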
# cells [8] = format: functional, cell-based
# cells [9] = format: functional, cell-based; remark: listed apart in the source
# [10] = biological target: Mitogen-activated protein kinase 10 (Homo sapiens, UniProt P53779); assay: Dose response biochemical screening assay for inhibitors of c-Jun N-Terminal Kinase 3 (JNK3). [Related pubchem assays: 746 ]
# Sequence of Mitogen-activated protein kinase 10 (P53779 whole entry): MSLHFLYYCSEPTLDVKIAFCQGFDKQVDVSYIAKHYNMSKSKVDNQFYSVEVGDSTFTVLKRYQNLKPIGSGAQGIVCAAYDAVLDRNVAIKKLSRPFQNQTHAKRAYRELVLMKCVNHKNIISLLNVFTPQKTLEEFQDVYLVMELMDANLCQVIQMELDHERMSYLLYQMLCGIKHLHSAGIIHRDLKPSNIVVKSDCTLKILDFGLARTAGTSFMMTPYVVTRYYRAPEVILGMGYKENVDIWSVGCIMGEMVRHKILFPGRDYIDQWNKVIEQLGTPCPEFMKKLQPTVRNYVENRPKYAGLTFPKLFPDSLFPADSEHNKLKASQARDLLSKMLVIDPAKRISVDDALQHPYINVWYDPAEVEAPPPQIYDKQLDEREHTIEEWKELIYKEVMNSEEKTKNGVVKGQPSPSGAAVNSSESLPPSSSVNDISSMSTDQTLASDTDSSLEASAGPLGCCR
# [11] = microbe, parasite or virus in culture; format: functional; conditions: Mycobacterium tuberculosis
# [12] = biological target: T3, Runt-related transcription factor 1/Core-binding factor subunit beta (Homo sapiens, UniProt Q01196+Q13951); assay: inhibitors of RUNX1 Runt–CBFb-SMMHC binding, biochemical, TR-FRET (AID 1438); format: protein assay
# T3 sequence (Q01196 whole entry): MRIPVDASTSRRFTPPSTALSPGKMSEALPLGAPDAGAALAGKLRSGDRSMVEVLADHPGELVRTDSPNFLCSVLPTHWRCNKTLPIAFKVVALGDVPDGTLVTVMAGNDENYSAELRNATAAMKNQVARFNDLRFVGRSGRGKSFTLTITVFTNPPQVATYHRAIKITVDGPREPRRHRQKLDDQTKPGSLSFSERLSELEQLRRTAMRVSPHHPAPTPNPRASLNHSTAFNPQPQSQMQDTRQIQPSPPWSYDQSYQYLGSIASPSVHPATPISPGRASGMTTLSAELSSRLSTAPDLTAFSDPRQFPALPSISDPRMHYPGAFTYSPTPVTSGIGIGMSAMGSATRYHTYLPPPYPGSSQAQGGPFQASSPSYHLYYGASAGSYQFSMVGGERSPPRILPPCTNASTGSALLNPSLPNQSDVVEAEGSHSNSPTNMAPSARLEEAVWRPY
# T3 sequence (Q13951 whole entry): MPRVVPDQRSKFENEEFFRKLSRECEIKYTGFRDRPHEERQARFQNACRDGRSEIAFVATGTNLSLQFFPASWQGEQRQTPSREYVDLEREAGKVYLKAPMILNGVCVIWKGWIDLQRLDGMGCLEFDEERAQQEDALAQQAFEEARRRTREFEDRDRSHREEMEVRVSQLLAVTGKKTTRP
# Protein skinhead-1 = biological target: T4, Protein skinhead-1 (Caenorhabditis elegans, UniProt P34707); format: functional
# T4 sequence (P34707 whole entry): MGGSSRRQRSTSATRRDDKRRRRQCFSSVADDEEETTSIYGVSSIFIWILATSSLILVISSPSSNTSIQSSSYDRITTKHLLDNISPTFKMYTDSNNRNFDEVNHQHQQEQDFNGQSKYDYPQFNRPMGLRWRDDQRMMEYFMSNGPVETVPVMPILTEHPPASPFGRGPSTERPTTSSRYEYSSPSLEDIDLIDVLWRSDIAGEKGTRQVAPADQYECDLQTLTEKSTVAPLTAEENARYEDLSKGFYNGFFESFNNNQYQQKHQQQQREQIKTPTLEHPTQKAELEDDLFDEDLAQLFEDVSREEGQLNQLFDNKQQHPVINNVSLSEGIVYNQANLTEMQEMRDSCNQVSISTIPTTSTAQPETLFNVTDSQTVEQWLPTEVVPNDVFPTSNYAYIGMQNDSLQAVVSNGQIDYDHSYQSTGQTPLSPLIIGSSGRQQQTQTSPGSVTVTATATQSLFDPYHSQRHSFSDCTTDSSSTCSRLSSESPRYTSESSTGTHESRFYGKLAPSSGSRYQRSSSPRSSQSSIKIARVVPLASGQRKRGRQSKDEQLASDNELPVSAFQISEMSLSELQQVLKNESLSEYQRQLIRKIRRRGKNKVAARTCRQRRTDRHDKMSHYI
# [13] = Artemis endonuclease inhibitor potency, dose response, biochemical, fluorescence intensity (AID 720701); format: functional;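 note: Artemis endonuclease enzyme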
# [14] = biological target: T3, Runt-related transcription factor 1/Core-binding factor subunit beta; assay: inhibitors of RUNX1 Runt–CBFb-SMMHC binding, primary screen, biochemical, FRET, Cerulean-Runt, Venus-CBFb-SMMHC, uHTS (AID 1434); format: protein assay;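 note: partner is the CBFb-SMMHC leukemia fusion protein rather than wild-type CBFb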
# [15] = HepG2 cell cytotoxicity, dose response, cytotoxicity control for Shn3 inhibitor project, CellTiter-Glo, cherry-picked (AID 624134); format: functional, cell-based
# [16] = Shn3 3'UTR reporter inhibitors, dose response, cell-based, Clone20 osteoblasts, firefly luciferase, cherry-picked (AID 624132); format: functional;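 note: firefly luciferase luminescence from reporter carrying the Shn3 3'UTR in osteoblasts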
# [17] = Luminescence Cell-Based Dose Retest to Confirm Inhibitors of Cancer Stem Cells. [Related pubchem assays (depositor defined):AID2717, AID2721]; format: functional; conditions: Homo sapiens
# [18] = biological target: Disintegrin and metalloproteinase domain-containing protein 17 (Homo sapiens, UniProt P78536); assay: ADAM17 protease inhibitors, dose response, counter-screen for ADAM10 exosite inhibitor project, biochemical, quenched FRET substrate (AID 743253)
# Sequence of Disintegrin and metalloproteinase domain-containing protein 17 (P78536 whole entry, the tested form may be a part): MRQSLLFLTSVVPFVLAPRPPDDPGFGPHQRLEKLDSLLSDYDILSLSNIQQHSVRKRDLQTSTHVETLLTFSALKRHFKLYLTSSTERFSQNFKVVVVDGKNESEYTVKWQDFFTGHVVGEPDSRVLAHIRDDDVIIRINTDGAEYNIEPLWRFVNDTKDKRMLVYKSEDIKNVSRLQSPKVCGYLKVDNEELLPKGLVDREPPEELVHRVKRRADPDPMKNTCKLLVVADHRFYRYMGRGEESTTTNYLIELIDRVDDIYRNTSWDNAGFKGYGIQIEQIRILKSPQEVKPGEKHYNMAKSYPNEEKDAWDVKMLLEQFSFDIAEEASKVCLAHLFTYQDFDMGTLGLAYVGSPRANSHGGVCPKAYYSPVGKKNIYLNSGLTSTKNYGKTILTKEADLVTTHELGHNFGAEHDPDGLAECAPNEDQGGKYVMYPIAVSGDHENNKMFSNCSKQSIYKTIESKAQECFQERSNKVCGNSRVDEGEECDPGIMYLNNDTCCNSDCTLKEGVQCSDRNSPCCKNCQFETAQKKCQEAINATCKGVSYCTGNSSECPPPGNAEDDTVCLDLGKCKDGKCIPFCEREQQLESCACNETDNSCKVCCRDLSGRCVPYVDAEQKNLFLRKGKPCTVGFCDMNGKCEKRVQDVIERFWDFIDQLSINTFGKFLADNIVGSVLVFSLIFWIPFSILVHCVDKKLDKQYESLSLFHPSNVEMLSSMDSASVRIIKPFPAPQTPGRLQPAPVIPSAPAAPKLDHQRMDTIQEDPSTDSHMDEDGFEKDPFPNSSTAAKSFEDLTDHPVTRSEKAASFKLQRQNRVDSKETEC
# [19] = ADAM10 inhibitors, peptide cleavage, dose response, biochemical, QFRET (AID 743254);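 note: ADAM10 enzyme with the DM2 quenched FRET peptide as substrate; EDANS fluorescence gain as the protease cuts the substrate; inhibitor potency against ADAM10 proteolytic activity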
# H9c2 = assay: cells; format: functional, cell-based; conditions: Rattus norvegicus, H9c2, Myocardium;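 note: confirmatory concentration-response retest of ultra-high-throughput screening hits for modulation of myocardial damage; cell death induced by hydrogen peroxide oxidative stress; compound pretreatment for 60 min then peroxide exposure for 2 h; potency is for protecting the cells against peroxide damage rather than for killing them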
# [20] = biological target: T5, Zinc finger protein mex-5 (Caenorhabditis elegans, UniProt Q9XUB2); assay: MEX-5/TCR-2 RNA interaction inhibitors, dose response, biochemical, C. elegans, fluorescence polarization (AID 1960)
# T5 sequence (Q9XUB2 whole entry): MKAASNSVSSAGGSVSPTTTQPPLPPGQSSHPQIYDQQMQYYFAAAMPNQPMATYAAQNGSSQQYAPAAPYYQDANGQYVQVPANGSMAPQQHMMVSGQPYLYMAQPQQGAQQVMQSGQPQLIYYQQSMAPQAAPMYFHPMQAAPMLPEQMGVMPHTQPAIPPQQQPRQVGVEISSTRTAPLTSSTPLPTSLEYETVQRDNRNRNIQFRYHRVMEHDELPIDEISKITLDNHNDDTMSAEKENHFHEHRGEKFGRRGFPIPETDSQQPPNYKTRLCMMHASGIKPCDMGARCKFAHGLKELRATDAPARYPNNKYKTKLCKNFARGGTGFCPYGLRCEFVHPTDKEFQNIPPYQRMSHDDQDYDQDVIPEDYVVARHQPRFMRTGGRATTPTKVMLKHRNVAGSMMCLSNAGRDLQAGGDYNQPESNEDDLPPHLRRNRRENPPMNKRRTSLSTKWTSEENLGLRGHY
# [21] = biological target: T6, Aryl hydrocarbon receptor (Homo sapiens, UniProt P35869); assay: Luminescence-based cell-based high throughput dose response assay for activators of the Aryl Hydrocarbon Receptor (AHR). [Related pubchem assays: 2796 (Primary screen (AHR activators in singlicate)), 2845 (Confirmation screen (AHR activators in triplicate)), 434939 (Counterscreen (PXR activators in triplicate)), 2804 (Summary (AHR activators))]; format: ADME
# T6 sequence (P35869 whole entry): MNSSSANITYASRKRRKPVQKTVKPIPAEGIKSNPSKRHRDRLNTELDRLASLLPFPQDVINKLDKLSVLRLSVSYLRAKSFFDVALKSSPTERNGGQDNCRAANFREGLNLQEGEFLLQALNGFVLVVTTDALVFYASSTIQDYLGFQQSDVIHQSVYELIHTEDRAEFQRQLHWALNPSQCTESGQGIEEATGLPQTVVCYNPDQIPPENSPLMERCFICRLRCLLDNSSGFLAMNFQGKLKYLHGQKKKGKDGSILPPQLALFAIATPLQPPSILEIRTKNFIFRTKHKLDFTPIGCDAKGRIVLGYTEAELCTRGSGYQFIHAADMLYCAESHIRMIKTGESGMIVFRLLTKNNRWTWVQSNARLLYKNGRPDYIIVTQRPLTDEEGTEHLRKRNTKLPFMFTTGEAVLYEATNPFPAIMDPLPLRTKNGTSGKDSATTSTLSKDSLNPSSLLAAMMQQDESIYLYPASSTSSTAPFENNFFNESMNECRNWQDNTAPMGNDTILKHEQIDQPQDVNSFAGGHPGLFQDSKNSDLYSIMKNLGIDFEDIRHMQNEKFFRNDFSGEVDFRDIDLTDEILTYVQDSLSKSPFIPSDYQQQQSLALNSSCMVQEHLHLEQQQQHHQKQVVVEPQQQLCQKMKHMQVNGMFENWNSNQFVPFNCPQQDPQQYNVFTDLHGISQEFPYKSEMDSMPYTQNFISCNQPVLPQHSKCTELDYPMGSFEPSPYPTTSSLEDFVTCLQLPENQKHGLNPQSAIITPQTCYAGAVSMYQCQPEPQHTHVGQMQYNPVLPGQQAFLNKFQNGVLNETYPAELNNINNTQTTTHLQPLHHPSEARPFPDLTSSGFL
# [22] = biological target: T7, RNA-binding protein pos-1 (Caenorhabditis elegans, UniProt G5EF15); assay: inhibitors of POS-1/mex-3 RNA binding, dose response, biochemical, fluorescence polarization (AID 1964);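 note: purified POS-1 fused to maltose binding protein made in E. coli; potency of compounds blocking POS-1 binding to fluorescent RNA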
# T7 sequence (G5EF15 whole entry): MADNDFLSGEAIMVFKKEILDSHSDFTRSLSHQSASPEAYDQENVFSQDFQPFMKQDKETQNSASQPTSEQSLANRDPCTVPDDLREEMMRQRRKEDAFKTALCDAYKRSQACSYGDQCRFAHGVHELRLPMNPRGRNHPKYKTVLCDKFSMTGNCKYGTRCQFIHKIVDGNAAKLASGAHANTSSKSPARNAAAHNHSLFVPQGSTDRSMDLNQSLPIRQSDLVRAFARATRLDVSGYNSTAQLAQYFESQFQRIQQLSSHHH
# [23] = biological target: E3 ubiquitin-protein ligase Mdm2 (Homo sapiens, UniProt Q00987); assay: enhancers of MDM2-luciferase reporter signal, concentration-effect titration, project on inhibitors of MDM2 ubiquitin ligase, cellular assay, luminescent readout, 384-well plate format (AID 1394); format: functional;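 note: MDM2 E3 inhibitors raise luminescence so EC50 is for signal enhancement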
# Sequence of E3 ubiquitin-protein ligase Mdm2 (Q00987 whole entry): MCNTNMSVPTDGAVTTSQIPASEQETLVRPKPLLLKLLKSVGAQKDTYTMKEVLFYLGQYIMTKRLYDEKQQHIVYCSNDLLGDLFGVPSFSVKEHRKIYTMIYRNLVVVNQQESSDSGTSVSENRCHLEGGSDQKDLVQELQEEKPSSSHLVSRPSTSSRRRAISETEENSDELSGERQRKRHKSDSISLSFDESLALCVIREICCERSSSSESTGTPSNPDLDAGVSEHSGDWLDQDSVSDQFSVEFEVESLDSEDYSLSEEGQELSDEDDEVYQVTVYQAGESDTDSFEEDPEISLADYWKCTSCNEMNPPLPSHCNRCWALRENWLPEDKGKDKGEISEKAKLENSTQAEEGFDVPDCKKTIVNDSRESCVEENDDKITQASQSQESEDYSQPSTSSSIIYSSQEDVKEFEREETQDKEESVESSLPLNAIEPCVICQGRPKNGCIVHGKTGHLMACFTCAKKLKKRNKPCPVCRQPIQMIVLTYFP
# Sequence of Glyceraldehyde-3-phosphate dehydrogenase (P04406 whole entry): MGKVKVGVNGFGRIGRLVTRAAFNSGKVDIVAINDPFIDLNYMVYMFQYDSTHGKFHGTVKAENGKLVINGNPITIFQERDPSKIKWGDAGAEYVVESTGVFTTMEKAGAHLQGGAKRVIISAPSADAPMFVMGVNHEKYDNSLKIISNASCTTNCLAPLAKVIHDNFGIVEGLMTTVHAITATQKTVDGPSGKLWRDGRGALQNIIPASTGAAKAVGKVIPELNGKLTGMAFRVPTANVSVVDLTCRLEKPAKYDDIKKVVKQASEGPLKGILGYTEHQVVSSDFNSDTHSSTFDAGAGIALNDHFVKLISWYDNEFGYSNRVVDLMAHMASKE
compound,measurement,setting,value
O=C1C(Cl)=C(N2CCN(Cc3ccc4c(c3)OCO4)CC2)C(=O)N1c1ccc(Cl)c(Cl)c1,IC50,[1],> 100 µM (not active)
same,IC50,Bcl-2-related protein A1 [2],2.14 µM (active)
same,IC50,Bcl-2-related protein A1 [3],4.07 µM (active)
CCCCNC(=O)c1cc(-c2ccc(OC)c(OC)c2)on1,IC50,[4],> 100 µM (not active)
O=S(=O)(Cc1ccc(Cl)cc1)NCC1CCCO1 (configuration not stated),EC50,[5],> 50 µM (not active)
Cc1cc(C(F)(F)F)nc(S(C)(=O)=O)n1,IC50,[1],> 100 µM (not active)
same,IC50,Bcl-2-related protein A1 [2],> 100 µM (not active)
same,IC50,Bcl-2-related protein A1 [3],> 100 µM (not active)
CCN(CC)c1ccc(C(=O)OCC(=O)N2CCN(c3ccccc3)CC2)cc1,IC50,[4],> 100 µM (not active)
Cc1ccc(CNC(=O)C2CCN(S(=O)(=O)N3CCCCC3)CC2)cc1,IC50,[6],> 83.4 µM (inactive)
same,IC50,[7],> 109 µM (inactive)
CCOC(=O)C1(C)NC(c2ccc(OC)cc2OC)C2C(=O)N(CC)C(=O)C21 (configuration not stated),IC50,[6],> 83.3 µM (inactive)
same,EC50,cells [8],> 350 µM (not active)
same,EC50,cells [9],> 350 µM (not active)
same,IC50,[7],> 109 µM (inactive)
COc1ccc(NC(=O)CCCCn2c(=O)[nH]c3ccccc3c2=O)cc1,IC50,[10],55.1 µM (not active)
COc1cc(NC(=O)c2ccc(COc3ccccc3Br)o2)cc(OC)c1OC,CC50,[11],> 40 µM (active)
same,IC50,[10],33 µM (not active)
N=c1c(C(=O)NCc2ccccc2)cc2c(=O)n3ccccc3nc2n1Cc1ccco1,IC50,[12],36.6 µM (active)
same,IC50,Protein skinhead-1,> 100 µM (inactive)
same,IC50,[13],> 20 µM (inactive)
same,IC50,[14],2.34 µM (active)
COc1cccc(CNC(=O)CN(c2cc(C)cc(C)c2)S(=O)(=O)c2c(C)noc2C)c1,EC50,[5],> 50 µM (not active)
C[C@@H]1CN([C@@H](C)CO)C(=O)c2cc(NC(=O)Nc3ccc(F)cc3)ccc2O[C@@H]1CN(C)Cc1ccc(Oc2ccccc2)cc1,AC50,[15],18.7 µM (active)
same,AC50,[16],9.38 µM (active)
same,AC50,[17],2.95 µM (active)
same,IC50,[18],> 69.5 µM (inactive)
same,IC50,[19],> 2.58 µM (active)
CCCCCCn1cnc2c(c1=O)c1nc3ccccc3nc1n2/N=C/c1ccco1,IC50,H9c2,19.1 µM (active)
same,IC50,[13],> 20 µM (inactive)
NS(=O)(=O)c1ccc(-c2ccc(/C=C3\SC(=O)NC3=O)o2)cc1,EC50,[20],33.4 µM (active)
same,EC50,[21],0.237 µM (active)
same,EC50,[22],> 300 µM (not active)
CCOc1ccc(-n2c(SCC(=O)Nc3ccc(S(=O)(=O)Nc4nccs4)cc3)nnc2-c2ccc(C(C)(C)C)cc2)cc1,IC50,[18],> 69.5 µM (inactive)
same,IC50,[19],9.71 µM (active)
COc1ccc(OCC(=O)N/N=C(\C)CC(=O)Nc2cccc([N+](=O)[O-])c2)cc1,EC50,[23],15.7 µM (not active)
O=C1CN(c2cc(Cl)cc(Cl)c2)C(=O)CN1/N=C/c1cccnc1,EC50,[23],0.01 µM (not active)
